For series [1], the system named is S. aureus E48. The class given is cell-based, Staphylococcus aureus. The method, then:
The experimental operation of the expression of the Plectasin variant in P. pastoris in well plates, shaking flasks, and 5 L level fermentation was performed as referenced in previous studies. Candidates were identified through three different levels of screening. Firstly, a large number of transformants were screened through well plates to induce expression and determined by the inhibition zone assay (against S. aureus ATCC 43300). Secondly, the transformants with obvious inhibition zones were sequenced to obtain protein sequence information, then induced expression at the shake level. The supernatant was collected and purified to obtain the target protein; the anti-Staphylococcus aureus activity of the protein was detected by a MIC assay. Finally, the codons of candidate sequences were optimized, the expression vector was reconstructed, the optimal transformers were obtained, and the high-density cultivation was performed in a 5 L fermenter. The final agent was determined by high protein yield and good activity (Figure 2).
(§1) The MIC value of PN7 against bacteria was determined by the microtiter broth dilution method. Briefly, bacteria grown to the exponential phase were diluted into MHB; subsequently, 90 μL of bacterial suspension (10^5 CFUs/mL) was mixed with 10 μL of different concentrations of PN7 in a sterilized 96-well microtiter plate (Nunc). MIC values were recorded after incubation for 16–18 h at 37 °C based on the lowest concentrations of peptides in which no visible bacterial growth was observed.

Series [2] deals with ICR mice. The experiment in a line: In vivo toxicity, intraperitoneal injection. More on the design: species or system mouse. The method, then:
ICR mice (6–8 weeks old, male, n = 5 per group; Charles River, Beijing, China) were intraperitoneally injected with PN7 (10 mg/kg, body weight) for 6 days, and the changes in mice behavior and body weight were recorded. At the same time, blood and organ tissues were collected for whole-blood cell and biochemical index analysis and H.E. staining.

For series [3], the system named is Streptococcus. suis CVCC 606. As to the kind of experiment: MIC, microtiter broth dilution. As to conditions: MHB, 10^5 CFUs/mL, 16–18 h at 37 °C. It counts as cell-based. The method, then:
as §1
(In general: Dilution methods test growth across graded concentrations, often in twofold steps.)

The test system of series [4] is S. enteritidis CVCC 3377. As to the kind of experiment: MIC, microtiter broth dilution. The class given is cell-based. As to conditions: MHB, 10^5 CFUs/mL, 16–18 h at 37 °C. The method, then:
as §1

For series [5], the system named is S. hyicus NCTC 10350. The experiment in a line: MIC, microtiter broth dilution. As to conditions: MHB, 10^5 CFUs/mL, 16–18 h at 37 °C. The class given is cell-based. The method, then: as §1
The test system of series [6] is S. agalactiae CAU-FRI-4. As to the kind of experiment: MIC, microtiter broth dilution. The class given is cell-based. As to conditions: MHB, 10^5 CFUs/mL, 16–18 h at 37 °C. The method, then: as §1
Series [7] has as its system S. pullorum CVCC 1789. As to the kind of experiment: MIC, microtiter broth dilution. It counts as cell-based. As to conditions: MHB, 10^5 CFUs/mL, 16–18 h at 37 °C. On the procedure: as §1
The test system of series [8] is S. epidermidis ATCC 35984. The experiment in a line: MIC, microtiter broth dilution. The class given is cell-based. As to conditions: MHB, 10^5 CFUs/mL, 16–18 h at 37 °C. The method, then:
as §1

Series [9] relates to S. agalactiae ATCC 13813. As to the kind of experiment: MIC, microtiter broth dilution. The class given is cell-based. As to conditions: MHB, 10^5 CFUs/mL, 16–18 h at 37 °C. The method, then: as §1
Series [10] has as its system Pseudomonas aeruginosa CICC 20625. As to the kind of experiment: MIC, microtiter broth dilution. The class given is cell-based. As to conditions: MHB, 10^5 CFUs/mL, 16–18 h at 37 °C. The method, then: as §1
The subject of series [11] is Salmonella enterica ATCC 13076. As to the kind of experiment: MIC, microtiter broth dilution. As to conditions: MHB, 10^5 CFUs/mL, 16–18 h at 37 °C. The class given is cell-based. The method, then: as §1
For series [12], the system named is S. hyicus 437-2. The experiment in a line: MIC, microtiter broth dilution. The class given is cell-based. As to conditions: MHB, 10^5 CFUs/mL, 16–18 h at 37 °C. On the procedure:
as §1

Series [13] has as its system Escherichia coli CVCC 195. The experiment in a line: MIC, microtiter broth dilution. The class given is cell-based. As to conditions: MHB, 10^5 CFUs/mL, 16–18 h at 37 °C. On the procedure: as §1
[14] abbreviates: 10 mg/kg daily intraperitoneal injection for 6 days, n = 5 per group.

The values below come from publication PMC10451632, “Site Mutation Improves the Expression and Antimicrobial Properties of Fungal Defense” (Antibiotics, 2023).

The structures appear in SMILES notation. ≈ marks a conversion by molar mass, not a printed value. Entries after “also recorded” stand apart in the source; their conditions may differ. Where two headings read alike, the source gives them in different places. Bridge positions count the residues as written; N and C are the ends. Peptide text beside a SMILES is read from it.

What is called MIC is the least concentration at which growth counts as inhibited. Low values mean greater potency, high ones weaker potency.

For the molecule `CC[C@H](C)[C@@H]1NC(=O)[C@H](CO)NC(=O)[C@H](CCCCN)NC(=O)[C@@H]2CSSC[C@@H](C(=O)N[C@@H](Cc3ccc(O)cc3)C(=O)O)NC(=O)[C@H](CCCCN)NC(=O)[C@@H]3CSSC[C@H](NC(=O)[C@H](CCCNC(=N)N)NC(=O)CNC(=O)[C@H](CC(=O)O)NC(=O)[C@H](CC(=O)O)NC(=O)[C@H](CCC(=O)O)NC(=O)[C@H](Cc4ccc(O)cc4)NC(=O)[C@H](Cc4c[nH]c5ccccc45)NC(=O)[C@@H]4CCCN4C(=O)CNC(=O)[C@H](CC(N)=O)NC(=O)[C@@H](NC(=O)CNC(=O)[C@H](Cc4ccccc4)NC(=O)CN)CSSC[C@H](NC(=O)[C@H](Cc4ccc(O)cc4)NC(=O)CNC(=O)CNC(=O)[C@H](CCCCN)NC(=O)[C@H](Cc4ccc(O)cc4)NC(=O)CNC(=O)[C@H](CCCCN)NC1=O)C(=O)N[C@@H](C)C(=O)N[C@@H](CCCCN)C(=O)NCC(=O)NCC(=O)N[C@@H](Cc1ccccc1)C(=O)N[C@@H](C(C)C)C(=O)N3)C(=O)N[C@@H](Cc1c[nH]cn1)C(=O)N[C@@H](CC(N)=O)C(=O)N[C@@H](Cc1c[nH]cn1)C(=O)N2` [PN7] (H-GFGCNGPWYEDDGRCHNHCKSIKGYKGGYCAKGGFVCKCY-OH; disulfide 4-30, 15-37, 19-39 (inferred); N-terminus and C-terminus assumed), the MIC was 4 µg/mL (≈ 0.908 µM) in [1] (S. aureus E48, purified protein induced by shaking flasks); 1 µg/mL (≈ 0.227 µM) in series [1] (microtiter broth dilution, MHB, 10^5 CFUs/mL, 16–18 h at 37 °C); 1 µg/mL (≈ 0.227 µM) in [3]; more than 128 µg/mL in series [4]; 4 µg/mL (≈ 0.908 µM) in [5]; 1 µg/mL (≈ 0.227 µM) in series [6]. The minimal inhibitory concentration (MIC) was more than 128 µg/mL in series [7]; 16 µg/mL (≈ 3.63 µM) in series [8]; 2 µg/mL (≈ 0.454 µM) in series [9]; more than 128 µg/mL in series [10]; more than 128 µg/mL in [11]; 8 µg/mL (≈ 1.82 µM) in [12]. Further, the MIC in series [13] was more than 128 µg/mL. Also, in series [2] (setting [14]), the “histological morphology of mouse organs (H&E)” value was “showed no difference”. Further, in series [2] (setting [14]), the “murine behavior and body weight” value is “did not observe a change in murine behavior or the loss of body weight”. Further, the “toxicity to mice, overall” value in series [2] (intraperitoneal injection for 6 d, observation 1 week) was “no toxicity; also recorded: no significant differences compared with the control group”.
